Read-outs that look alike come from different tables or passages of the source. One block for each molecule: values may come before it.
Legend:
MCF-7 cells = experiment: MTT antiproliferative assay, MCF-7; type: cell-based; settings: for IC50: Homo sapiens, MCF7, breast MCF-7 cells, 72 h, MTT assay, 0.1-100 µM, read-out: Estimated IC50, MCF-7; for Selectivity index, MCF-7: ratio of IC50 in NHDF to IC50 in MCF-7
Experimental: (§1) Each experiment was performed in quadruplicate and independently repeated.

HepaRG cells = experiment: MTT antiproliferative assay, HepaRG; type: cell-based; settings: for IC50: Homo sapiens, liver HepaRG cells, 72 h, MTT assay, 0.1-100 µM, read-out: Estimated IC50, HepaRG; for Selectivity index, HepaRG: ratio of IC50 in NHDF to IC50 in HepaRG
Experimental: as §1

Caco-2 cells = experiment: cells; settings: Homo sapiens, Caco-2, 72 h, read-out: Estimated IC50, Caco-2
Experimental: (§2) The antiproliferative effect of compounds was evaluated by the 3-(4,5-dimethylthiazol-2-yl)-2,5-diphenyltetrazolium bromide (MTT; Sigma-Aldrich, St Louis, MO, USA) assay in MCF-7, T47-D, LNCaP, HepaRG, Caco-2 and NHDF cells. After reaching near confluence, cells were trypsinized and counted with a hemocytometer by means of the trypan-blue exclusion of dead cells. Then, 100 µL of cell suspension (2 × 10^4 cells/mL) was seeded in 96-well culture plates and left to adhere and growth during 48 h. […] Afterward, MTT containing medium was removed and formazan crystals were dissolved in DMSO. Absorbance was measured at 570 nm using a microplate reader Bio-rad Xmark spectrophotometer. After background subtraction, cell proliferation values were expressed as percentage relatively to the absorbance determined in negative control cells. Untreated cells were used as the negative control and the clinical drug 5-fluorouracil (5-FU) was used as positive control. Each experiment was performed in quadruplicate and independently repeated.
(§3) Data were expressed as mean ± standard deviation (SD). t-Student test (two groups) and one-way ANOVA (three groups) were used followed by Bonferroni post hoc tests to determine statistically significant differences among the means.

[1] = tested on: normal human dermal fibroblasts (NHDF); experiment: MTT antiproliferative assay, NHDF; type: cell-based; settings: normal fibroblast NHDF cells, 72 h, 0.1-100 µM, read-out: Estimated IC50, NHDF
Experimental: as §1

T47-D cells = experiment: MTT antiproliferative assay, T47-D; type: cell-based; settings: for IC50: Homo sapiens, T47D, breast T47-D cells, 72 h, MTT assay, 0.1-100 µM, read-out: Estimated IC50, T47-D; for Selectivity index, T47-D: ratio of IC50 in NHDF to IC50 in T47-D
Experimental: as §1

LNCaP cells [2] = experiment: MTT antiproliferative assay, LNCaP; type: cell-based; settings: for IC50: Homo sapiens, prostate LNCaP cells, MTT assay, 0.1-100 µM, read-out: Estimated IC50, LNCaP; for Selectivity index, LNCaP: ratio of IC50 in NHDF to IC50 in LNCaP
Experimental: as §1

in vitro = settings: human, Caco-2
Experimental: as §2, §3

LNCaP cells [3] = experiment: LNCaP cell viability by flow cytometry after propidium iodide staining; type: cell-based; settings: 50 µM, 24 h, PI flow cytometry
Experimental: The analysis of LNCaP cells viability was performed by flow cytometry after staining with propidium iodide (PI) (solution of PI 1 mg/mL in 0.1% of sodium azide and water; Sigma Aldrich, St Louis, MO, USA). Briefly, 3 mL of cells suspension were seeded in 6-well plates (5 × 10^4 cells/mL) in complete culture medium. After 48 h they were treated with 50 µM of compound 11. Untreated cells were used as negative control and 5-FU (50 µM) was used as positive control. Each experiment was performed in duplicate and independently repeated. At the end of 24 h of incubation, the supernatant of each well was collected, cells were harvested by trypsinization and pooled with the supernatants. The resulting cell suspension was kept on ice, pelleted by centrifugation and resuspended in 400 µL of complete medium. Afterward, 395 µL of the cell suspension was transferred to a FACS tube and 5 µL of PI and 0.5 µL of ethylenediamine tetraacetic acid (EDTA, 0.123 M) were added. A minimum of 20,000 events was acquired using a BD Accuri C6 (San Jose, CA, USA) flow cytometer in the channels forward scatter (FSC), side scatter (SSC) and fluorescence channel-3 (FL3, for PI). Acquisition and analysis were performed with BD Accuri Software. […]

LNCaP cells [4] = experiment: Cell cycle distribution of LNCaP cells by flow cytometry; type: cell-based; settings: 50 µM, 24 h
Experimental: After 24 h of treatment with compound 11 at 50 µM (6-well plates, 5 × 10^4 cells/mL), LNCaP cells were collected and washed with PBS and resuspended in 450 µL of a cold solution of 0.5% bovine serum albumin (BSA; Amresco, Solon, OH, USA) and 1 mM EDTA in PBS, followed by fixation with 70% EtOH and kept at −20 °C. Afterward, fixed cells were washed twice with PBS and resuspended in a solution of PI (50 µg/mL) prepared in 0.5% BSA and 1 mM EDTA in PBS and then incubated with Ribonuclease A from bovine pancreas at a final concentration of 0.5 µg/µL (solution in 50% glycerol, 10 mM Tris-HCl, pH 8; Sigma Aldrich, St Louis, MO, USA) for 15 min in the dark. For comparison, untreated cells were used as negative control and cells treated with 5-FU at 50 µM were used as positive control. Each experiment was performed in duplicate and independently repeated. A minimum of 10,000 events was acquired using BD Accuri Software and analysis was performed by Modfit software (Becton Dickinson, San Jose, CA, USA).

[5] = tested on: MCF-7, T47D, LNCaP, HepaRG, Caco-2 and NHDF cell lines; experiment: MTT screening at 30 µM in six cell lines; type: cell-based; settings: 72 h
Experimental: as §1

[6] = tested on: estrogen-sensitive breast cancer T47-D cells (ER+); set-up: method as in doi:10.5802/crchim.17; settings: previous study; cited from earlier work
HepaRG cell cycle = tested on: HepaRG cell cycle; set-up: method as in doi:10.5802/crchim.17; settings: HepaRG cells; cited from earlier work
[7] = tested on: estrogen-sensitive breast cancer T47-D cells (ER+); experiment: E-screening (estrogenicity) assay in T47-D cells; type: cell-based; settings: 0.001 and 0.01 µM, vs. negative control, MTT readout
Experimental: After overnight incubation, the medium was replaced every 3 days with fresh phenol red free RPMI 1640 medium supplemented with 5% of dextran-coated charcoal-treated fetal calf serum (DCC-FCS) and containing compound 11 (0.1, 0.01 and 0.001 µM). […] Each experiment was performed in quadruplicate and independently repeated.

LNCaP cells [8] = experiment: Fluorescence microscopy of LNCaP cells after Hoechst 33258 DNA staining; type: cell-based; settings: 50 µM, 24 h
Experimental: Near-confluent LNCaP cells were seeded in a 6-well plate (5 × 10^4 cells/mL). After adherence and incubation for 24h with compound 11 (50 µM), the dye Hoechst 33,258 was added to the culture medium to achieve a final concentration of 1µg/mL. The cells were incubated for 15 min at 37 °C and were then photographed by means of a Nikon Eclipse microscope equipped with a fluorescence attachment containing the appropriate optical blocks and a QCapture CCD camera.

17β-HSD1 = settings: at 10 μM; cited from earlier work
uterine growth = tested on: uterine growth; set-up: method as in PMID 10447965; settings: ovariectomized rats; cited from earlier work

IC50 (MCF-7 cells): 41.9 µM
IC50 (Caco-2 cells): 42.7 µM
Compound: C[C@]12CC[C@@H]3c4ccc(O)cc4CC[C@H]3[C@@H]1CCC2=O [Compound 1, estrone, reference compound]
IC50 (HepaRG cells): 29.5 µM
IC50 [1]: 61.8 µM

Compound: C[C@]12CC[C@@H]3c4ccc(O)cc4CC[C@H]3[C@@H]1CCC2=NO [Compound 2, 17-hydroxyiminoestra-1,3,5(10)-trien-3-ol]
IC50 (MCF-7 cells): 26.7 µM
Selectivity index, MCF-7 (MCF-7 cells): 1.65
IC50 (T47-D cells): 29.3 µM
Selectivity index, T47-D (T47-D cells): 1.50
IC50 (HepaRG cells): 16.9 µM
Selectivity index, HepaRG (HepaRG cells): 2.59
IC50 [1]: 43.9 µM

Compound: C[C@]12CC[C@@H]3c4cc([N+](=O)[O-])c(O)cc4CC[C@H]3[C@@H]1CCC2=NO [Compound 5, 17-hydroxyimino-2-nitroestra-1,3,5(10)-trien-3-ol]
IC50 (MCF-7 cells): 16.8 µM
IC50 (HepaRG cells): 12.3 µM
IC50 (Caco-2 cells): 18.5 µM

IC50 (LNCaP cells [2]; 72 h): 7.79 µM
IC50 (Caco-2 cells): 1.31 µM
Compound: O=c1[nH]cc(F)c(=O)[nH]1 [Compound 5-FU, 5-fluorouracil, reference compound]
Selectivity index, MCF-7 (MCF-7 cells): 2.11
IC50 (T47-D cells): 0.54 µM
Selectivity index, T47-D (T47-D cells): 6.69
Selectivity index, LNCaP (LNCaP cells [2]): 0.46
IC50 (HepaRG cells): 1.78 µM
Selectivity index, HepaRG (HepaRG cells): 2.03
selectivity ratio at 72 h (in vitro): 2.76
IC50 [1]: 3.61 µM
Reduction in cell viability (LNCaP cells [3]): 12%
Effect on cell cycle distribution (LNCaP cells [4]): not able to pass through to the S and G2/M phases

Compound: C[C@]12CC[C@@H]3c4cc([N+](=O)[O-])c(O)c([N+](=O)[O-])c4CC[C@H]3[C@@H]1CCC2=NO [Compound 6, 17-hydroxyimino-2,4-dinitroestra-1,3,5(10)-trien-3-ol]
Cytotoxic/antiproliferative effect in screening [5]: low antiproliferative activity

Compound: C[C@]12CC=C3c4ccc(O)cc4CCC3C1CCC2=O (stereo partly drawn) [Compound 8, Δ^9,11-E1]
Proliferative/estrogenic effect on T47-D cells [6]: stimulated the proliferation of T47-D cells
Effect on cell cycle (HepaRG cell cycle): induced an arrest at G0/G1

Compound: C[C@]12CC[C@@H]3c4cc(I)c(O)c(I)c4CC[C@H]3[C@@H]1CCC2=NO [Compound 10, 17-hydroxyimino-2,4-diiodooestra-1,3,5(10)-trien-3-ol]
IC50 (HepaRG cells): 28 µM

Compound: C[C@]12CC=C3c4ccc(O)cc4CCC3C1CCC2=NO (stereo partly drawn) [Compound 11, 17-hydroxyimino-3-hydroxyestra-1,3,5(10),9(11)-tetraen-3-ol]
IC50 (MCF-7 cells): 25.6 µM
Selectivity index, MCF-7 (MCF-7 cells): 1.20
IC50 (T47-D cells): 43.5 µM
Selectivity index, T47-D (T47-D cells): 0.71
IC50 (LNCaP cells [2]; 72 h): 3.59 µM
Reduction of cell proliferation in screening (LNCaP cells [2]; LNCaP cells, 30 µM, 72 h, MTT): significant reduction of LNCaP cells proliferation
Selectivity index, LNCaP (LNCaP cells [2]): 8.59
IC50 (HepaRG cells): 18.4 µM
Selectivity index, HepaRG (HepaRG cells): 1.68
selectivity ratio at 72 h (in vitro): 1.27
IC50 (Caco-2 cells): 24.3 µM
IC50 [1]: 30.8 µM
Proliferative/estrogenic effect on T47-D cells [7]: stimulated the cell proliferation
Reduction in cell viability (LNCaP cells [3]): 11%
Effect on cell cycle distribution (LNCaP cells [4]): induced a G2/M cell cycle arrest
Nuclei morphology (Hoechst 33,258) (LNCaP cells [8]): condensed DNA, typical of prophase, and a small proportion of condensed and fragmented nuclei, typical of apoptosis

Compound: C[C@]12CCC3c4cc(Br)c(O)c(Br)c4CCC3C1CCC2=NO (stereo partly drawn) [Compound 12, 17-hydroxyimino-2,4-dibromo-3-hydroxyestra-1,3,5(10)-trien-3-ol]
IC50 (HepaRG cells): 21.9 µM

Compound: CC12CCC3c4ccc(O)cc4CCC3C1CC(=NO)C2=O (stereo not drawn) [Compound 16-oxime]
% inhibition of 17β-HSD1 (17β-HSD1): 96%

Compound: C[C@]12CC[C@@H]3c4ccc(O)cc4CC[C@H]3[C@@H]1CC[C@@H]2O [Compound E2, 17β-estradiol, reference compound]
Proliferative/estrogenic effect on T47-D cells [7]: stimulated the cell proliferation

Compound: C[C@]12CC[C@@H]3c4ccc(OS(N)(=O)=O)cc4CC[C@H]3[C@@H]1CCC2=O [EMATE, estrone sulfamate]
Stimulatory effect on the uterine growth (uterine growth): 0.11 g

Compound: C[C@]12CCC3c4ccc(OS(N)(=O)=O)cc4CCC3C1CC/C2=N\O (stereo partly drawn) [OMATE, estrone oxime sulfamate]
Stimulatory effect on the uterine growth (uterine growth): 0.15 g
